Test results reported in patent US8741806B2, “Herbicides” (Syngenta Limited, priority 2009, dated 2014).

Experiments:
Assay type in all cases: in vivo
[1] = tested on: Echinochloa crus-galli (ECHCG); test: Example B pre-emergence herbicidal activity, glasshouse pot test; conditions: 312 h, rate 250 g/ha, evaluated after 13 days, scale 0-100, read-out: Pre-emergence activity ECHCG (100=total damage to plant; 0=no damage to plant)
Protocol: (§1) Seeds of a variety of test species were sown in standard soil in pots. After cultivation for one day (pre-emergence) or after 8 days cultivation (post-emergence) under controlled conditions in a glasshouse (at 24/16° C., day/night; 14 hours light; 65% humidity), the plants were sprayed with an aqueous spray solution derived from the formulation of the technical active ingredient of formula I in acetone/water (50:50) solution containing 0.5% Tween 20 (polyoxyethelyene sorbitan monolaurate, CAS RN 9005-64-5). The test plants were then grown in a glasshouse under controlled conditions in a glasshouse (at 24/16° C., day/night; 14 hours light; 65% humidity) and watered twice daily. After 13 days for pre and post-emergence, the test was evaluated (100=total damage to plant; 0=no damage to plant). Setaria faberi (SETFA), Lolium perenne (LOLPE), Alopecurus myosuroides (ALOMY), Echinochloa crus-galli (ECHCG), and Avena fatua (AVEFA). Pre-Emergence Activity

[2] = tested on: Avena fatua (AVEFA); test: as above; conditions: 312 h, rate 250 g/ha, evaluated after 13 days, scale 0-100, read-out: Pre-emergence activity AVEFA (100=total damage to plant; 0=no damage to plant)
Protocol: as §1

[3] = tested on: Alopecurus myosuroides (ALOMY); test: as above; conditions: 312 h, rate 250 g/ha, evaluated after 13 days, scale 0-100, read-out: Pre-emergence activity ALOMY (100=total damage to plant; 0=no damage to plant)
Protocol: as §1

[4] = tested on: Lolium perenne (LOLPE); test: as above; conditions: 312 h, rate 250 g/ha, evaluated after 13 days, scale 0-100, read-out: Pre-emergence activity LOLPE (100=total damage to plant; 0=no damage to plant)
Protocol: as §1

[5] = tested on: Echinochloa crus-galli (ECHCG); test: Example B post-emergence herbicidal activity, glasshouse pot test; conditions: 312 h, rate 250 g/ha, evaluated after 13 days, scale 0-100, read-out: Post-emergence activity ECHCG (100=total damage to plant; 0=no damage to plant)
Protocol: as §1, with “Post-Emergence” for “Pre-Emergence”

[6] = tested on: Avena fatua (AVEFA); test: as above; conditions: 312 h, rate 250 g/ha, evaluated after 13 days, scale 0-100, read-out: Post-emergence activity AVEFA (100=total damage to plant; 0=no damage to plant)
Protocol: as §1, with “Post-Emergence” for “Pre-Emergence”

[7] = tested on: Alopecurus myosuroides (ALOMY); test: as above; conditions: 312 h, rate 250 g/ha, evaluated after 13 days, scale 0-100, read-out: Post-emergence activity ALOMY (100=total damage to plant; 0=no damage to plant)
Protocol: as §1, with “Post-Emergence” for “Pre-Emergence”

[8] = tested on: Lolium perenne (LOLPE); test: as above; conditions: 312 h, rate 250 g/ha, evaluated after 13 days, scale 0-100, read-out: Post-emergence activity LOLPE (100=total damage to plant; 0=no damage to plant)
Protocol: as §1, with “Post-Emergence” for “Pre-Emergence”

| SMILES | pest or weed control at 250 g/ha [1] [%] | pest or weed control at 250 g/ha [2] [%] | pest or weed control at 250 g/ha [3] [%] | pest or weed control at 250 g/ha [4] [%] | pest or weed control at 250 g/ha [5] [%] | pest or weed control at 250 g/ha [6] [%] | pest or weed control at 250 g/ha [7] [%] | pest or weed control at 250 g/ha [8] [%] |
| --- | --- | --- | --- | --- | --- | --- | --- | --- |
| CCc1ccc(-c2ccc(Cl)c(OC)c2)cc1C1=C(O)CC(C)(C)CC1=O [Compound T23] | 90 | 20 | 40 | 70 | 100 | 60 | 90 | 100 |
| CCc1ccc(-c2ccc(Cl)c(OC)c2)cc1C1=C(O)CCCC1=O [Compound T50] | 90 | 40 | 20 | 0 | 100 | 80 | 70 | 80 |
| CCc1ccc(-c2ccc(Cl)s2)cc1C1=C(O)CCCC1=O [Compound T55] | 40 | 0 | 20 | 20 | 100 | 10 | 40 | 60 |
| CCc1ccc(-c2ccc(Cl)c(F)c2F)cc1C1=C(O)CCCC1=O [Compound T52] | 100 | 30 | 40 | 90 | 100 | 80 | 70 | 100 |
| CCc1ccc(-c2ccc(Cl)cc2F)cc1C1=C(O)CC(C)(C)CC1=O [Compound T32] | 80 | 30 | 0 | 80 | 100 | 70 | 40 | 100 |
| CCc1ccc(-c2ccc(Cl)c(C(F)(F)F)c2)cc1C1=C(O)C(C)(C)CC(C)(C)C1=O [Compound T65] | 90 | 20 | 10 | 50 | 80 | 30 | 20 | 50 |
| CCc1ccc(-c2c(F)cc(Cl)cc2F)cc1C1=C(O)CC(C)(C)CC1=O [Compound T28] | 100 | 40 | 20 | 90 | 100 | 50 | 30 | 100 |
| CCc1ccc(-c2ccc(Cl)c(F)c2Cl)cc1C1C(=O)C(C)(C)CC(C)(C)C1=O [Compound T63] | 90 | 50 | 20 | 90 | 80 | 40 | 20 | 80 |
| CCc1ccc(-c2ccc(Cl)cc2Cl)cc1C1=C(O)C(C)(C)CCC1=O [Compound T18] | 90 | 20 | 30 | 80 | 90 | 40 | 30 | 80 |
